From patent publication US8673594B2, “Methods for stimulating nervous system regeneration and repair by regulating arginase I and polyamine synthesis” (Research Foundation of City University of New York, priority 2000, dated 2014)

Columns and labels:
[1] = system: cerebellar neurons on MAG-expressing CHO cells; test: Neurite outgrowth of cerebellar neurons on MAG-expressing or control CHO cells; type: cell-based
Protocol: FIG. 2: Improved Axonal Growth on MAG Induced By Elevating cAMP Levels is Transcription-Dependent. (A) Isolated cerebellar neurons at a density of 20,000 neurons per well were plated onto a monolayer of either MAG-expressing Chinese hamster ovary (CHO) cells (striped bars) or control CHO cells (black bars) and cultured overnight before being fixed and immunostained for GAP43 to visualize the neurites. The length of the longest neurite per neuron, from 180-200 neurons, was measured and results are the average length+/−SEM. Where indicated, dibutyryl cAMP (dbcA) at 1 mM in the presence or absence of the inhibitor of transcription, 5,6-dichloro-1-b-D-ribofuranosylbenzimidazole (DRB) at 5 μM, was added to each culture. (B) Cerebellar neurons (1×10^6) were plated onto poly-L-lysine and cultured overnight with brain-derived neurotrophic factor (BDNF) at 200 ng/ml, (termed priming) in the presence or absence of DRB at 5 μM, before being transferred to the CHO cell monolayers.
FIG. 6: An Ornithine Decarboxylase (ODC) Inhibitor Abrogates the Blocking Effect of dbcAMP on the Inhibition of Axonal Outgrowth by MAG and Myelin. […] The longest neurite from at least 180-200 neurons were measured. Results are shown as the mean neurite length+/−SEM.
(§1) After further incubation, neurons were fixed and immunostained for GAP43. The longest neurite from each neuron for 180-200 neurons were measured. Results are shown as the mean neurite length+/−SEM.
FIG. 8: An Inhibitor Of ODC Blocks The Priming Effects Of GDNF On The Inhibition By MAG. […] After further incubation, neurons were fixed and immunostained for GAP43. The longest neurite from each neuron for 180-200 neurons were measured. Results are shown as the mean neurite length±SEM.
Primed neurons were transferred to either MAG-expressing or control CHO cells (A) or a substrate of CNS myelin (B) for further incubation. Neurons were then fixed and immunostained for GAP43. The longest neurite from each neuron was measured for 180-200 neurons. Results are shown as the percentage of control. […]
Neurons were isolated essentially as described in Doherty at al., Nature, 343, pp. 464-66 (1990); Neuron, 5, pp. 209-19 (1990); and Kleitman at al., Culturing Nerve Cells, pp. 337-78, MIT Press, Cambridge, Mass./London, England (G. Banker and K Goslin, Eds.) (1991). Briefly, for animals up to nine days of age, the cerebellum, from two animals were removed and combined in 5 ml of 0.025% trypsin in PBS, triturated, and incubated for a further 10 minutes (min.) at 37° C. Trypsinization was stopped by addition of 5 ml DMEM containing 10% fetal calf serum (FCS) and cells were centrifuged at 800 rpm for 6 min. […] For older DRG neurons, ganglia were removed from two animals and incubated in 5 ml of Sat medium containing 0.025% trypsin and 0.15% collagenase type I (Worthington) for 30 min. at 37° C. The ganglia were triturated with a fire-polished Pasteur pipette. Trypsinization was stopped by adding 5 ml of DMEM containing 10% FCS, centrifuged at 800 rpm for 6 min, and resuspended in 2 ml of SAT (DeBellard et al., 1996). Cells were counted with a Coulter counter.
Chinese hamster ovary (CHO) cells deficient in the dihydrofolate reductase (dhfr) gene (Urlaub and Chasin, Proc. Natl, Acad, Sci. 77, pp. 4216-20 (1980)) were transfected with a MAG-cDNA expression plasmid with the dhfr gene and the L-MAG cDNA, cells with multiple copies of dbfr were selected by growing in increasing concentrations of methotrexate, and the expression of MAG by individual transfected CHO cell lines characterized as described in Mukhopadhyay et al., Neuron, 13, pp. 757-67 (1994), which is incorporated herein by reference. The MAG-expressing transfected CHO cell line) (“CHO-MAG2”) in that publication was deposited on Jun. 27, 1996 with the American Type Culture Collection (ATCC) (Rockville, Md.) according to the provisions of the Budapest Treaty, and was assigned the ATCC accession number designated: ATCC CRL-12145. […]

[2] = system: DRG neurons on MAG-expressing CHO cells; test: Neurite outgrowth of DRG neurons on MAG-expressing or control CHO cells; type: cell-based; conditions: P0-1 DRG neurons, DFMO 1 mM
Protocol: After overnight incubation, neurons were fixed and immunostained for GAP 43. The longest neurite from each of 120-150 DRG neurons were measured. Results are shown as the mean neurite length+/−SEM.
FIG. 14: Over-Expression Of Arginase In Older DRG Neurons By Adenovirus-Mediated Gene Transfer Is Sufficient To Overcome Inhibition By MAG. Postnatal day 5 DRG neurons (0.5×10^6) were plated in 24-well plates and infected with adenovirus containing ArgI-GFP or GFP alone. Alter overnight culture, infected neurons were transferred to MAG-expressing (stippled bars) or control (black bars) CHO cells for neurite outgrowth. Neurons were fixed and immunostained for GAP43. The neurons with double staining of GAP43 and GFP were considered as positively infected. The length of the longest neurite per neuron was measured for 120-150 positively infected neurons. Results are shown as the average neurite length+/−SEM of GFP-infected (GFP) or ArgI-infected (ArgI) neurons grown on MAG.
Neurons were isolated essentially as described in Doherty at al., Nature, 343, pp. 464-66 (1990); Neuron, 5, pp. 209-19 (1990); and Kleitman at al., Culturing Nerve Cells, pp. 337-78, MIT Press, Cambridge, Mass./London, England (G. Banker and K Goslin, Eds.) (1991). […] Cells were counted with a Coulter counter. […]

[3] = biological target: T1, arginase (Rattus norvegicus, UniProt P07824); conditions: cited from earlier work
T1 sequence (P07824 1-323): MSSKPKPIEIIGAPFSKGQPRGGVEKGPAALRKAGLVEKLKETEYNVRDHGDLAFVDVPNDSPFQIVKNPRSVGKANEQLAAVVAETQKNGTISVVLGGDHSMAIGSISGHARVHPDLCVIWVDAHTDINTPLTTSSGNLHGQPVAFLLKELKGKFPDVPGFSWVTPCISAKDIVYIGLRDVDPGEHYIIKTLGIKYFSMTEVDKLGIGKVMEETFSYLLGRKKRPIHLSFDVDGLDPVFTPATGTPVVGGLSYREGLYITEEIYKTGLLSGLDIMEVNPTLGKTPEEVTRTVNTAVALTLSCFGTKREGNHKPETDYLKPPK

[4] = system: cerebellar neurons on purified CNS myelin; test: Neurite outgrowth of cerebellar neurons on purified CNS myelin substrate; type: cell-based
Protocol: Isolated cerebellar neurons at a density of 20,000 neurons per well were plated onto a substrate of purified CNS myelin and cultured overnight before being fixed and immunostained for GAP43. The length of the longest neurite per neuron from 180-200 neurons was measured and results are the average length+/−SEM. Where indicated, dibutyryl cAMP (dbcA) at 1 mM in the presence or absence of the inhibitor of transcription, 5,6-dichloro-1-b-D-ribofuranosylbenzimidazole (DRB) at 5 μM, was added to each culture. (B) Cerebellar neurons (1×10^6) were plated onto poly-L-lysine and cultured overnight with brain-derived neurotrophic factor (BDNF) at 200 ng/ml, (termed priming) in the presence or absence of DRB at 5 μM, before being transferred to the CNS myelin substrate.
The longest neurite from at least 180-200 neurons were measured. Results are shown as the mean neurite length+/−SEM.
as §1
Primed neurons were transferred to either MAG-expressing or control CHO cells (A) or a substrate of CNS myelin (B) for further incubation. Neurons were then fixed and immunostained for GAP43. The longest neurite from each neuron was measured for 180-200 neurons.
Trypsinization was stopped by addition of 5 ml DMEM containing 10% fetal calf serum (FCS) and cells were centrifuged at 800 rpm for 6 min. […] The ganglia were triturated with a fire-polished Pasteur pipette. […] Cells were counted with a Coulter counter.
The neurite outgrowth assay was carried out by adding 5×10^4 neurons to the immobilized myelin substrate or 2×10^4 neurons to the CHO cell monolayers. Briefly, confluent monolayers of control and MAG-expressing CHO cells were established over a 24-hour (h) period in individual chambers of an 8-well tissue culture slide (Lab-Tek). […] Culture medium was SATO containing 2% FCS.
GAP43 antibody was detected by staining with Texas Red and arginase antibody was detected with anti-biotin secondary antibody followed by Texas Red-conjugated streptavidin.
After periods of time as indicated, the co-cultures were fixed for 30 min with 4% paraformaldehyde and permeabilized with ice-cold methanol for 2 min. […] After three more washes, the slides were mounted in Permfluor (Baxter) and viewed with a Zeiss fluorescent microscope. The length of the longest neurite for each GAP43-positive neuron was determined using the Biological Detection System image analysis program (Pittsburgh).

[5] = putrescine in the culture, no priming

## Cl.NCCCC(N)(C(=O)O)C(F)F (racemic) [DFMO, DL-a-difluoromethyl-ornithine hydrochloride]
[1]; DFMO 1 mM during overnight priming with BDNF 200 ng/ml
  effect on the positive (priming) effect of BDNF on axonal growth in the presence of MAG: completely abrogated
[1]; DFMO 1 mM during overnight priming with GDNF 200 ng/ml
  effect on the positive (priming) effect of GDNF on axonal growth in the presence of MAG: completely abrogated
[1]; DFMO 1 mM with dbcAMP 1 mM
  effect on the dbcAMP block of inhibition by MAG: lost
[1]; DFMO 1 mM, control CHO cells
  effect alone on neurite growth on control CHO cells: no significant effect
[1]; DFMO 1 mM, no dbcAMP
  effect alone on inhibition by MAG: no significant effect
[2]
  effect alone on neurite growth on control CHO cells, young DRG neurons: no effect
[2]; overnight
  effect on promotion of axonal growth by MAG in young DRG neurons: completely abolished

## N[C@@H](CCCCB(O)O)C(=O)O [ABH, 2(S)-amino-6-boronohexanoic acid]
[3]
  arginase inhibitor potency, in words: most potent inhibitor of arginase identified to date

## OC[C@H]1O[C@@H](n2cnc3cc(Cl)c(Cl)cc32)[C@H](O)[C@@H]1O [DRB, 5,6-dichloro-1-b-D-ribofuranosylbenzimidazole]
[1]; DRB 5 μM with dbcAMP 1 mM or BDNF 200 ng/ml priming
  effect of transcription inhibitor on the dbcAMP/BDNF block of MAG inhibition: neither dbcAMP nor BDNF block inhibition

## NCCCCN [putrescine]
[1]; overnight priming
  putrescine dose above which the blocking effect on MAG saturates: higher than 25 μM
[1]; putrescine (10 mM as printed elsewhere in the source) with DFMO 1 mM and BDNF during priming
  effect of putrescine on BDNF priming blocked by DFMO (MAG): restored the priming effect of BDNF
[1]; [5]
  block of inhibition of axonal growth by MAG, putrescine added without priming: only partially blocks
[4]; overnight priming
  putrescine concentration at which the blocking effect on myelin saturates: about 50 μM
[4]; priming with putrescine at 10 μM
  increase in axonal outgrowth on CNS myelin: two-fold
[4]; [5]
  block of inhibition of axonal growth by myelin, putrescine added without priming: only partially blocks
